Measured values taken from US10053468B2, “Heterocyclic compound” (TAKEDA PHARMACEUTICAL COMPANY LIMITED, priority 2013, dated 2018).
Where two headings read alike, the source gives them in different places.

Experiments:
RORγt [1] = target: T1, RORγt (Homo sapiens, UniProt P51449); experiment: Jurkat reporter test (human IL-17 ROR response element luciferase, RORγt vector); assay type: cell-based; details: read-out: Luminescence level inhibitory rate at test compound 3 μM (%)
T1 sequence (P51449 1-497 isoform P51449-2): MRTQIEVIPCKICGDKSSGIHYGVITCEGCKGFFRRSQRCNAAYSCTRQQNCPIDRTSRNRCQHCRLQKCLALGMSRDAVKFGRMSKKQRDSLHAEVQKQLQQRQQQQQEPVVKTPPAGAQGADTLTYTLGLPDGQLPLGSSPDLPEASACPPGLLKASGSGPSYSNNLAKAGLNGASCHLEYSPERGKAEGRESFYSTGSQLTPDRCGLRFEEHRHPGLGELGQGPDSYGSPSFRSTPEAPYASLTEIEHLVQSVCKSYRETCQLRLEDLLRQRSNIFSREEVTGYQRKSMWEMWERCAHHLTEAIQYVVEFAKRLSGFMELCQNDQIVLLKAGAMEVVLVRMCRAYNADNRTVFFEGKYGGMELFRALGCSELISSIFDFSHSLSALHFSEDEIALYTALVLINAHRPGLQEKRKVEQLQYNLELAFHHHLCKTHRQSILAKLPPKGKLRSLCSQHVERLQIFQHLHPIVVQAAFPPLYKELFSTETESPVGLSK
Procedure, shortened: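 Jurkat cells were electroporated (1350 V, 10 ms, 3 pulses) with reporter constructs, then cultured overnight with compound in RPMI containing 10% lipid-reduced FCS, 10 mM HEPES pH 7.5 and 5 μM lovastatin. Luciferase was quantified by Bright-Glo luminescence after 10 min at room temperature.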

RORγt [2] = target: T1, RORγt; experiment: Cofactor recruitment test (Alpha Screen, biotinylated SRC-1 peptide); assay type: biochemical; details: read-out: Signal value inhibitory rate at test compound 1 μM (%)
Method: Cofactor Recruitment Test
Cofactor recruitment test was performed by Alpha Screen (Histidine Detection Kit, PerkinElmer) method. First, a test compound was diluted with an assay buffer (50 mM Tris-HCl (pH 7.5), 50 mM KCl, 1 mM DTT, 0.1% BSA) and added to a 384 well plate by 5 μL. […] The mixture was stood in a dark place for 1 hr, and the signal value was measured by Envision (PerkinElmer).

RORγt [3] = target: T1, RORγt; experiment: RORγt binding test using fluorescent-labeled synthetic ligand (TR-FRET); details: read-out: Binding inhibitory rate of fluorescent-labeled synthetic ligand to RORγt at test compound 1 μM (%)
Procedure, shortened: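 His-tagged RORγt (diluted to 240 nM) with compound, then fluorescent synthetic ligand (diluted to 12 μM), 20 min at room temperature, followed by Tb anti-His antibody (diluted to 8 nM), 20 min.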

RORγt [4] = target: T1, RORγt; experiment: RORγt binding test using fluorescent-labeled cholesterol (TR-FRET); details: read-out: Binding inhibitory rate of fluorescent-labeled cholesterol to RORγt at test compound 1 μM (%)
Procedure, shortened: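 TR-FRET displacement with His-tagged RORγt, BODIPY-cholesterol and Tb-anti-His antibody in Tris-HCl pH 7.5, 100 mM NaCl, 1 mM DTT, 0.1% BSA. Compound, RORγt and labelled cholesterol were incubated 20 min at RT, then antibody was added for another 20 min.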

[5] = test compound 3 μM, Jurkat cells

SMILES: COc1ccc2c(n1)CCN(C(=O)c1cc(O)no1)[C@H]2C(=O)Nc1cc(F)c2c(c1)CCC2(C)C [Example 115, (5R)-N-(7-fluoro-1,1-dimethyl-2,3-dihydro-1H-inden-5-yl)-6-((3-hydroxy-1,2-oxazol-5-yl)carbonyl)-2-methoxy-5,6,7,8-tetrahydro-1,6-naphthyridine-5-carboxamide]
- inhibition at 3 µM (RORγt [1]; [5]): 102%
- inhibition at 1 µM (RORγt [2]): 89%
- inhibition at 1 µM (RORγt [3]): 101%
- inhibition at 1 µM (RORγt [4]): 103%

SMILES: CCOCC(C)(C)c1c(F)cc(NC(=O)[C@H]2c3ccc(OCC)cc3CCN2C(=O)c2cc(O)no2)cc1F [Example 167, (1R)-6-ethoxy-N-(4-(1-ethoxy-2-methylpropan-2-yl)-3,5-difluorophenyl)-2-((3-hydroxy-1,2-oxazol-5-yl)carbonyl)-1,2,3,4-tetrahydroisoquinoline-1-carboxamide]
- inhibition at 3 µM (RORγt [1]; [5]): 97%
- inhibition at 1 µM (RORγt [2]): 85%
- inhibition at 1 µM (RORγt [3]): 102%
- inhibition at 1 µM (RORγt [4]): 101%

SMILES: CCOc1ccc2c(c1)CCN(C(=O)c1cc(O)no1)[C@H]2C(=O)Nc1cc(F)c(C(C)(C)COC)c(F)c1 [Example 163, (1R)-N-(3,5-difluoro-4-(1-methoxy-2-methylpropan-2-yl)phenyl)-6-ethoxy-2-((3-hydroxy-1,2-oxazol-5-yl)carbonyl)-1,2,3,4-tetrahydroisoquinoline-1-carboxamide]
- inhibition at 3 µM (RORγt [1]; [5]): 101%
- inhibition at 1 µM (RORγt [2]): 97%
- inhibition at 1 µM (RORγt [3]): 102%
- inhibition at 1 µM (RORγt [4]): 100%

SMILES: COCc1ccc2c(n1)CCN(C(=O)Cc1cc(O)no1)[C@H]2C(=O)Nc1cc(F)c([Si](C)(C)C)c(F)c1 [Example 138, (5R)-N-(3,5-difluoro-4-(trimethylsilyl)phenyl)-6-((3-hydroxy-1,2-oxazol-5-yl)acetyl)-2-(methoxymethyl)-5,6,7,8-tetrahydro-1,6-naphthyridine-5-carboxamide]
- inhibition at 3 µM (RORγt [1]; Jurkat): 104%
- inhibition at 1 µM (RORγt [2]): 100%
- inhibition at 1 µM (RORγt [3]): 101%
- inhibition at 1 µM (RORγt [4]): 102%

SMILES: COCc1ccc2c(c1)CCN(C(=O)c1cc(O)no1)[C@H]2C(=O)Nc1cc(F)c(C(C)(C)COC)c(F)c1 [Example 137, (1R)-N-(3,5-difluoro-4-(1-methoxy-2-methylpropan-2-yl)phenyl)-2-((3-hydroxy-1,2-oxazol-5-yl)carbonyl)-6-(methoxymethyl)-1,2,3,4-tetrahydroisoquinoline-1-carboxamide]
- inhibition at 3 µM (RORγt [1]; [5]): 103%
- inhibition at 1 µM (RORγt [2]): 98%
- inhibition at 1 µM (RORγt [3]): 102%
- inhibition at 1 µM (RORγt [4]): 102%

SMILES: COc1ccc2c(n1)CCN(C(=O)Cc1cc(O)no1)C2C(=O)Nc1ccc(C(C)(C)C)c(F)c1 (stereo not drawn) [Example 41, N-(4-tert-butyl-3-fluorophenyl)-6-((3-hydroxy-1,2-oxazol-5-yl)acetyl)-2-methoxy-5,6,7,8-tetrahydro-1,6-naphthyridine-5-carboxamide]
- inhibition at 3 µM (RORγt [1]; [5]): 98.9%
- inhibition at 1 µM (RORγt [2]): 74.9%
- inhibition at 1 µM (RORγt [3]): 102%
- inhibition at 1 µM (RORγt [4]): 102%

SMILES: COc1ccc2c(c1)OCCN(C(=O)Cc1cc(O)no1)[C@H]2C(=O)Nc1cc(F)c([Si](C)(C)C)c(F)c1 [Example 56, (5R)-N-(3,5-difluoro-4-(trimethylsilyl)phenyl)-4-((3-hydroxy-1,2-oxazol-5-yl)acetyl)-8-methoxy-2,3,4,5-tetrahydro-1,4-benzoxazepine-5-carboxamide]
- inhibition at 3 µM (RORγt [1]; Jurkat): 99.9%
- inhibition at 1 µM (RORγt [2]): 61.3%
- inhibition at 1 µM (RORγt [3]): 102%
- inhibition at 1 µM (RORγt [4]): 101%

SMILES: COc1ccc2c(c1)CCN(C(=O)Cc1cc(O)no1)[C@H]2C(=O)Nc1ccc([Si](C)(C)C)c(F)c1 [Example 73, (1R)-N-(3-fluoro-4-(trimethylsilyl)phenyl)-2-((3-hydroxy-1,2-oxazol-5-yl)acetyl)-6-methoxy-1,2,3,4-tetrahydroisoquinoline-1-carboxamide]
- inhibition at 3 µM (RORγt [1]; Jurkat): 100%
- inhibition at 1 µM (RORγt [2]): 90%
- inhibition at 1 µM (RORγt [3]): 102%
- inhibition at 1 µM (RORγt [4]): 102%

SMILES: CCOc1ccc2c(n1)CCN(C(=O)CCCC(=O)O)[C@H]2C(=O)Nc1cc(F)c([Si](C)(C)C)c(F)c1 [Example 129, 5-((5R)-5-((3,5-difluoro-4-(trimethylsilyl)phenyl)carbamoyl)-2-ethoxy-7,8-dihydro-1,6-naphthyridin-6(5H)-yl)-5-oxopentanoic acid]
- inhibition at 3 µM (RORγt [1]; Jurkat): 102%
- inhibition at 1 µM (RORγt [2]): 99%
- inhibition at 1 µM (RORγt [3]): 101%
- inhibition at 1 µM (RORγt [4]): 98%

SMILES: CCOCC(C)(C)c1c(F)cc(NC(=O)[C@H]2c3ccc(OC)cc3CCN2C(=O)Cc2cc(O)no2)cc1F [Example 170, (1R)-N-(4-(1-ethoxy-2-methylpropan-2-yl)-3,5-difluorophenyl)-2-((3-hydroxy-1,2-oxazol-5-yl)acetyl)-6-methoxy-1,2,3,4-tetrahydroisoquinoline-1-carboxamide]
- inhibition at 3 µM (RORγt [1]; [5]): 97%
- inhibition at 1 µM (RORγt [2]): 81%
- inhibition at 1 µM (RORγt [3]): 102%
- inhibition at 1 µM (RORγt [4]): 102%

SMILES: COc1ccc2c(c1)CCN(C(=O)[C@@H]1CNC(=O)C1)[C@H]2C(=O)Nc1ccc(C(C)(C)C)c(F)c1 [Example 25, (1R)-N-(4-tert-butyl-3-fluorophenyl)-6-methoxy-2-(((3S)-5-oxopyrrolidin-3-yl)carbonyl)-1,2,3,4-tetrahydroisoquinoline-1-carboxamide]
- inhibition at 3 µM (RORγt [1]; [5]): 102%
- inhibition at 1 µM (RORγt [2]): 85.8%
- inhibition at 1 µM (RORγt [3]): 101%
- inhibition at 1 µM (RORγt [4]): 102%

SMILES: COc1ccc2c(c1)CCN(C(=O)c1cc(O)no1)[C@H]2C(=O)Nc1ccc(C(C)(C)COCC(F)F)c(F)c1 [Example 75, (1R)-N-(4-(1-(2,2-difluoroethoxy)-2-methylpropan-2-yl)-3-fluorophenyl)-2-((3-hydroxy-1,2-oxazol-5-yl)carbonyl)-6-methoxy-1,2,3,4-tetrahydroisoquinoline-1-carboxamide]
- inhibition at 3 µM (RORγt [1]; [5]): 96%
- inhibition at 1 µM (RORγt [2]): 78%
- inhibition at 1 µM (RORγt [3]): 102%
- inhibition at 1 µM (RORγt [4]): 101%

SMILES: COc1ccc2c(c1)CCN(C(=O)Cc1nnc(C)o1)[C@H]2C(=O)Nc1cc(F)c(C(C)(C)C(=O)N2CCCC2)c(F)c1 [Example 106, (1R)-N-(3,5-difluoro-4-(2-methyl-1-oxo-1-(pyrrolidin-1-yl)propan-2-yl)phenyl)-6-methoxy-2-((5-methyl-1,3,4-oxadiazol-2-yl)acetyl)-1,2,3,4-tetrahydroisoquinoline-1-carboxamide]
- inhibition at 3 µM (RORγt [1]; [5]): 102%
- inhibition at 1 µM (RORγt [2]): 101%
- inhibition at 1 µM (RORγt [3]): 101%
- inhibition at 1 µM (RORγt [4]): 102%

SMILES: CCOc1ccc2c(c1)CCN(C(=O)Cc1cc(O)no1)[C@H]2C(=O)Nc1cc(F)c(C(C)(C)COCC(F)F)c(F)c1 [Example 155, (1R)-N-(4-(1-(2,2-difluoroethoxy)-2-methylpropan-2-yl)-3,5-difluorophenyl)-6-ethoxy-2-((3-hydroxy-1,2-oxazol-5-yl)acetyl)-1,2,3,4-tetrahydroisoquinoline-1-carboxamide]
- inhibition at 3 µM (RORγt [1]; [5]): 99%
- inhibition at 1 µM (RORγt [2]): 84%
- inhibition at 1 µM (RORγt [3]): 101%
- inhibition at 1 µM (RORγt [4]): 101%

SMILES: COCc1ccc2c(c1)CCN(C(=O)Cc1cc(O)no1)[C@H]2C(=O)Nc1ccc(C(C)(C)C)c(F)c1 [Example 132, (1R)-N-(4-tert-butyl-3-fluorophenyl)-2-((3-hydroxy-1,2-oxazol-5-yl)acetyl)-6-(methoxymethyl)-1,2,3,4-tetrahydroisoquinoline-1-carboxamide]
- inhibition at 3 µM (RORγt [1]; [5]): 104%
- inhibition at 1 µM (RORγt [2]): 98%
- inhibition at 1 µM (RORγt [3]): 102%
- inhibition at 1 µM (RORγt [4]): 100%
